Among the data in patent US8278290B2, “Tubulin polymerisation inhibitors” (Biononics Limited, priority 2005, dated 2012) are IC50 values, retold here.

One assay relates to MCF-7, cancer cell line. Kind of assay: MCF-7 growth inhibition (SRB or Sysmex cell counting). Format: cell-based. The following applies: SRB or CC assay.
The test system of assay [1] is Human umbilical vein endothelial cells. The assay is described as follows: Proliferation Assay - activated endothelium (MTT). Type of assay: cell-based. The following applies: HUVEC, range within which the IC50 value falls, 48 hrs culture, read-out: Inhib activated HUVECs IC50. As for the experimental part: Proliferation Assay—activated endothelium: Human umbilical vein endothelial cells (CC-2519, Clonetics) were plated at 2500 cells/well in EGM2 (CC-3162, Clonetics) in a 96 well plate in triplicate. Cells were cultured overnight at 37° C. 5% CO2. Medium was subsequently replaced with fresh medium including the compound or negative control. Cells were cultured for a period of 48 hrs. An MTT assay was performed to measure changes in cell numbers. Briefly, 20 μl of MTT reagent was added to cells containing 100 μl of EGM2 and incubated at 37° C. for 2 hours. Absorbance was measured at 492 nm.

[2] abbreviates: concentration required to inhibit net cell growth by 50%.
The mark [3] stands for this setting: Homo sapiens, MCF7, concentration required to inhibit net cell growth by 50%.

Where “and” joins values, the source holds several entries; their conditions need not be identical. Identical values can stand only once.

Take “2-Imidazol-1-yl-7-O-bis-(triethylammonium)phosphate-6-methoxy-3-(3,4,5-trimethoxybenzoyl)-benzo[b]furan [Entry 49]”: the IC50 in the assay on MCF-7, cancer cell line (setting [2]) was 1.4 nM and 2.2 nM.
Regarding `COc1ccc(/C=C\c2cc(OC)c(OC)c(OC)c2)cc1O` [Entry 1, reference compound], in assay [1], the concentration for half-maximal inhibition (IC50) lay in the range of 1 to 10 nM.
On to `COc1cc(C(=O)c2coc3c(O)c(OC)ccc23)cc(OC)c1OC` [Entry 7, reference compound], for which the IC50 in assay [1] was 10 to 100 nM; in the assay with MCF-7, cancer cell line (setting [3]), 62 nM; in the assay with MCF-7, cancer cell line (setting [2]), 31 nM.
With `COc1ccc(-c2oc3c(OP(=O)(O)O)c(OC)ccc3c2C(=O)c2cc(OC)c(OC)c(OC)c2)cc1` [Entry 8, reference compound], the IC50 in the assay on MCF-7, cancer cell line (setting [3]) is 3.6 nM; in the assay with MCF-7, cancer cell line (setting [2]) it was 4.2 nM and 6 nM and 4.7 nM.
Regarding `COc1cc(C(=O)c2coc3c(OP(=O)(O)O)c(OC)ccc23)cc(OC)c1OC` [Entry 9, reference compound], the IC50 in the assay with MCF-7, cancer cell line (setting [3]) amounted to 41 nM; with MCF-7, cancer cell line (setting [2]) it was 82 nM.
The like results for `COc1cc(C(=O)c2c(-c3cnn(C)c3)oc3c(OC(C)C)c(OC)ccc23)cc(OC)c1OC` [Entry 13] were, in that order, 48 nM and 35 nM.
The like results for `COc1cc(C(=O)c2c(-c3cnn(Cc4ccccc4)c3)oc3c(O)c(OC)ccc23)cc(OC)c1OC` [Entry 15] were, in that order, 4.1 nM and 3.3 nM.
Turning to `COc1cc(C(=O)c2c(-c3cn[nH]c3)oc3c(O)c(OC)ccc23)cc(OC)c1OC` [Entry 16, [7-Hydroxy-6-methoxy-2-(1H-pyrazol-4-yl)-benzofuran-3-yl]-(3,4,5-trimethoxyphenyl)-methanone], the IC50 was 1 to 10 nM in assay [1]; 3 nM in the assay on MCF-7, cancer cell line (setting [3]); 3.4 nM in the assay with MCF-7, cancer cell line (setting [2]).
The like results for `COc1ccc2c(C(=O)c3cc(OC)c(OC)c(OC)c3)c(-c3cnn(Cc4ccccc4)c3)oc2c1` [Entry 17, [2-(1-Benzyl-1H-pyrazol-4-yl)-6-methoxy-benzofuran-3-yl]-(3,4,5-trimethoxyphenyl)-methanone] were, in that order, 100 to 1000 nM, 110 nM and 83 nM.
For `COc1ccc2c(C(=O)c3cc(OC)c(OC)c(OC)c3)c(-c3ccsc3)oc2c1` [Entry 18, 2-(3-Thiophenyl)-3-(3,4,5-trimethoxybenzoyl)-6-methoxy-benzo[b]furan], in that order: 10 to 100 nM, 17 nM and 22 nM.
For the molecule `COc1ccc2c(C(=O)c3cc(OC)c(OC)c(OC)c3)c(-c3cnn(C)c3)[nH]c2c1` [Entry 19, [6-Methoxy-2-(1-methyl-1H-pyrazol-4-yl)-1H-indol-3-yl]-(3,4,5-trimethoxyphenyl)-methanone], the IC50 in assay [1] was 10 to 100 nM; with MCF-7, cancer cell line (setting [3]), 12 nM.
Consider `COc1cc(C(=O)c2c(-c3cnn(C)c3)oc3c([N+](=O)[O-])c(OC)ccc23)cc(OC)c1OC` [Entry 20, [6-Methoxy-7-nitro-2-(1-methyl-1H-pyrazol-4-yl)-benzofuran-3-yl]-(3,4,5-trimethoxyphenyl)-methanone], for which the IC50 was 10 to 100 nM in assay [1]; 33 nM in the assay with MCF-7, cancer cell line (setting [3]); 40 nM in the assay with MCF-7, cancer cell line (setting [2]).
For `COc1cc(C(=O)c2c(-c3cnn(C)c3)oc3c(O)c(OC)ccc23)cc(OC)c1O` [Entry 22], the half-inhibitory concentration (IC50) in the assay on MCF-7, cancer cell line (setting [3]) stood at 25 nM; in the assay on MCF-7, cancer cell line (setting [2]), 29 nM.
As to `COc1cc(OC)cc(C(=O)c2c(-c3cnn(C)c3)oc3c(O)c(OC)ccc23)c1` [Entry 24, 2-(4-N-methylpyrazolyl)-3-(3,5-dimethoxybenzoyl)-6-methoxy-7-hydroxy-benzofuran], the IC50 in assay [1] is 1 to 10 nM; in the assay on MCF-7, cancer cell line (setting [3]), 3.3 nM; with MCF-7, cancer cell line (setting [2]), 4.4 nM.
The like results for `COc1cc(C(=O)c2c(-c3c(C)noc3C)oc3c(O)c(OC)ccc23)cc(OC)c1OC` [Entry 25, 2-(3,5-dimethylisoxazol-4-yl)-7-hydroxy-3-(3,4,5-trimethoxy-benzoyl)-6-methoxybenzo[b]furan] were, in that order, 10 to 100 nM, 68 nM and 57 nM.
The like results for `COc1cc(C(=O)c2c(-c3cnn(CC(C)C)c3)oc3c(O)c(OC)ccc23)cc(OC)c1OC` [Entry 26, 2-(4-N-isobutyl-pyrazolyl)-7-hydroxy-3-(3,4,5-trimethoxy-benzoyl)-6-methoxy-benzo[b]furan] were, in that order, 1 to 10 nM, 21 nM and 14 nM.
For `COc1cc(C(=O)c2c(-n3ccnc3)oc3c(O)c(OC)ccc23)cc(OC)c1OC` [Entry 27, 2-(N-imidazolyl)-7-hydroxy-3-(3,4,5-trimethoxybenzoyl)-6-methoxy-benzo[b]furan], in that order: 1 to 10 nM, 1.6 nM and < 1 nM.
Regarding `COc1cc(C(=O)c2c(-c3cccs3)oc3c(O)c(OC)ccc23)cc(OC)c1OC` [Entry 28, 7-Hydroxy-2-(2-thiophenyl)-3-(3,4,5-trimethoxybenzoyl)-6-methoxy-benzo[b]furan], the IC50 in assay [1] is 0.1 to 1 nM; in the assay with MCF-7, cancer cell line (setting [3]), < 1 nM.
As to `COc1ccc2c(C(=O)c3cc(OC)c(OC)c(OC)c3)c(-c3cnn(CC(=O)O)c3)oc2c1` [Entry 29, Sodium {4-[6-Methoxy-3-(3,4,5-trimethoxy-benzoyl)-benzo[b]furan-2-yl]-pyrazol-1-yl}-acetate], the IC50 in assay [1] was 100 nM; in the assay on MCF-7, cancer cell line (setting [3]), 900 nM; with MCF-7, cancer cell line (setting [2]), 540 nM.
For `CCOC(=O)Cn1cc(-c2oc3cc(OC)ccc3c2C(=O)c2cc(OC)c(OC)c(OC)c2)cn1` [Entry 30, {4-[6-Methoxy-3-(3,4,5-trimethoxy-benzoyl)-benzofuran-2-yl]-pyrazol-1-yl}-acetic acid ethyl ester], in that order: 10 to 100 nM, 29 nM and 15 nM.
As to `COc1ccc2c(C(=O)c3cc(OC)c(OC)c(OC)c3)c(-c3cnn(CC(N)=O)c3)oc2c1` [Entry 31, 2-{4-[6-Methoxy-3-(3,4,5-trimethoxy-benzoyl)-benzo[b]furan-2-yl]-pyrazol-1-yl}-acetamide], the IC50 in assay [1] is 1 to 10 nM; in the assay with MCF-7, cancer cell line (setting [3]), 3.8 nM; with MCF-7, cancer cell line (setting [2]), 4 nM.
As to `COc1ccc2c(C(=O)c3cc(OC)c(OC)c(OC)c3)c(-c3cn[nH]c3)oc2c1` [Entry 32, 6-Methoxy-2-(1H-pyrazol-4-yl)-3-(3,4,5-trimethoxybenzoyl)benzo[b]furan], the IC50 is 1 to 10 nM in assay [1]; 3.6 nM in the assay on MCF-7, cancer cell line (setting [3]); 4 nM with MCF-7, cancer cell line (setting [2]).
`COc1cc(C(=O)c2c(-c3cnn(C)c3)oc3c2ccc2ocnc23)cc(OC)c1OC` [Entry 33]: the IC50 was 100 to 1000 nM in assay [1]; 540 nM in the assay on MCF-7, cancer cell line (setting [3]); 600 nM in the assay with MCF-7, cancer cell line (setting [2]).
For `COc1cc(C(=O)c2c(-n3cccn3)oc3c(O)c(OC)ccc23)cc(OC)c1OC` [Entry 34, 2-(N-pyrazolyl)-7-hydroxy-3-(3,4,5-trimethoxybenzoyl)-6-methoxy-benzo[b]furan], in that order: 100 to 1000 nM, 3.5 nM and 2.4 nM.
With `COc1cc(C(=O)c2c(-n3ccnn3)oc3c(O)c(OC)ccc23)cc(OC)c1OC` [Entry 35, 2-(1N-1,2,3-triazolyl)-7-hydroxy-3-(3,4,5-trimethoxybenzoyl)-6-methoxy-benzo[b]furan], the IC50 in assay [1] lay within 1 to 10 nM.
With `COc1cc(C(=O)c2c(-c3ccc(C=O)s3)oc3c(O)c(OC)ccc23)cc(OC)c1OC` [Entry 37, 2-(2-thiophene-5-carbaldehyde)-7-hydroxy-3-(3,4,5-trimethoxybenzoyl)-6-methoxy-benzo[b]furan], the IC50 is 1 to 10 nM in assay [1]; 1.8 nM in the assay on MCF-7, cancer cell line (setting [3]); 2.3 nM in the assay with MCF-7, cancer cell line (setting [2]).
For `COc1cc(C(=O)c2c(-n3cccc3)oc3c(O)c(OC)ccc23)cc(OC)c1OC` [Entry 38, 2-(1-pyrolyl)-7-hydroxy-3-(3,4,5-trimethoxybenzoyl)-6-methoxy-benzo[b]furan], the concentration for half-maximal inhibition (IC50) in assay [1] was 1 to 10 nM; in the assay with MCF-7, cancer cell line (setting [3]), 1.4 nM; in the assay with MCF-7, cancer cell line (setting [2]), 2.1 nM.
Turning to `COc1ccc2c(C(=O)c3cc(OC)c(OC)c(OC)c3)c(-c3cn(C)cn3)oc2c1` [Entry 39, [2-(1-methyl-1H-Imidazol-4-yl)-6-methoxy-benzofuran-3-yl]-(3,4,5-trimethoxyphenyl)-methanone], the IC50 in assay [1] was 10 to 100 nM; with MCF-7, cancer cell line (setting [3]), 40 nM; in the assay on MCF-7, cancer cell line (setting [2]) it was 35 nM.
For `COc1ccc(-n2cc(-c3oc4cc(OC)ccc4c3C(=O)c3cc(OC)c(OC)c(OC)c3)cn2)cc1` [Entry 40, {6-Methoxy-2-[1-(4-methoxy-phenyl)-1H-pyrazol-4-yl]-benzofuran-3-yl}-(3,4,5-trimethoxyphenyl)-methanone], in that order: 100 to 1000 nM, 360 nM and 350 nM.
Turning to `COc1cc(C(=O)c2c(-c3ccco3)oc3c(OP(=O)(O)O)c(OC)ccc23)cc(OC)c1OC` [Entry 47, 7-(O-disodiumphosphate)-2-(2-furyl)-6-methoxy-3-(3,4,5-trimethoxybenzoyl)benzo-[b]furan], the IC50 with MCF-7, cancer cell line (setting [3]) is 0.26 nM; in the assay with MCF-7, cancer cell line (setting [2]), 0.31 nM.
The like results for `COc1cc(C(=O)c2c(-c3nccs3)oc3c(OP(=O)(O)O)c(OC)ccc23)cc(OC)c1OC` [Entry 48, 2-(2-Thiazolyl)-7-O-disodiumphosphate-6-methoxy-3-(3,4,5-trimethoxybenzoyl)-benzo[b]furan] were, in that order, 0.53 nM and 0.4 nM.
For the molecule `COc1cc(C(=O)c2c(-c3cnn(CC(N)=O)c3)oc3c(O)c(OC)ccc23)cc(OC)c1OC` [Entry 51, 2-{4-[7-Hydroxy-6-methoxy-3-(3,4,5-trimethoxybenzoyl)-benzofuran-2-yl]-pyrazol-1-yl}-acetamide], the half-inhibitory concentration (IC50) in assay [1] lay in the range of 0.1 to 1 nM.

Usually IC50 stands for the concentration that gives 50% inhibition.
